Legend:
[1] = tested on: Pan02 cells; experiment: Wound healing assay, Pan02; type: cell-based, murine; settings: 0.1 μM PGE2, 24 h, dose-dependent
Method: (§1) The wound healing assay was performed according to a standard protocol as described before. Briefly, Pan02 and BxPC-3 cells were grown as a confluent monolayer in 12-well plates (Corning, Corning, NY, USA) overnight and starved with serum-free medium for 6 h. The monolayer cells were disrupted with a P100 micropipette tip (JET BIOFIL, Guangzhou, China) and rinsed with PBS to remove detached cells. Medium containing different concentrations of compounds was added subsequently. After 24 h, treated cells were stained with 2 μM calcein-AM (Yeasen, Shanghai, China) for 20 min and washed with PBS. Photos were taken of the area in the scraped zone of each dish at 100× magnification by using an inverted fluorescent microscope (OLYMPUS, Tokyo, Japan).

[2] = molecular target: T1, human EP2 (Homo sapiens, UniProt P43116); experiment: Calcium flux assay, human EP2; type: cell-based; settings: CHO-Gα16 cells, PGE2 (EC80)
T1 construct: expressed in transfected cells; host or cells: CHO-Gα16
T1 sequence (P43116 whole entry): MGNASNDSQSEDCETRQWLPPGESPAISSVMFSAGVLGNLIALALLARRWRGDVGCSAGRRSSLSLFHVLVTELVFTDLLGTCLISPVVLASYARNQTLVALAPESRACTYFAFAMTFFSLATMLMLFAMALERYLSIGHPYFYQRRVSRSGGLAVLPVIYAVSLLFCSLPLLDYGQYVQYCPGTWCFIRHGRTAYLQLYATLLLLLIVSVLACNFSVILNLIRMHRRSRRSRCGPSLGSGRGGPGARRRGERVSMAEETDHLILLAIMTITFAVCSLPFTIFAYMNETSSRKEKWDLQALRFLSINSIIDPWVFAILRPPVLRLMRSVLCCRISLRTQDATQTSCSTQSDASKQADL
Method: (§2) Calcium flux assay was conducted as described in our previous study. Briefly, CHO-Gα16 cells were transfected, respectively, with human EP1, human EP2, human EP3, human EP4, monkey EP4, mouse EP4 and rat EP4 overexpression constructs using lipofectamine 2000 according to the manufacturer’s manual. Cells were then seeded into a 96-well black plate with a cell density of 2 × 10^4 cells/100 μL per well for a 16-h culture. On the next day, cells were incubated for 45 min with reagents (100 μL/well) of Calcium-5 Assay Kit (Molecular Devices, San Jose, CA, USA). Then, cells were pre-treated with indicated concentrations of L001 for 15 min and stimulated with PGE2 (EC80). The calcium flux was detected subsequently by a Flexstation® 3 Multi-Mode Microplate Reader (Molecular Devices, San Jose, CA, USA).

[3] = tested on: Pan02-Luc hepatic metastasis; experiment: Pan02-Luc liver metastasis model with bioluminescent imaging; type: in vivo, C57BL/6 mice
Method: (§3) Male C57/BL6 mice (6–8 weeks) were obtained from the National Rodent Laboratory Animal Resources (NRLAR, Shanghai, China). All mice were housed according to Institutional Animal Care and Use Committee guidelines and under a protocol approved by East China Normal University Ethics Committee with respect to animal care and welfare assurance. The bioluminescent liver metastasis mouse model was established as described previously. In brief, 2 × 10^6 Pan02/luc cells suspended in 50 μL of PBS were injected into mice spleen. […] Tumor metastasis was monitored by using an in vivo imaging system following intraperitoneal injection with D-Luciferin (2 mg per mouse; Promega). Bioluminescence intensity was recorded every seven days by a Xenogen IVIS-200 Optical in vivo imaging system (PerkinElmer; Waltham, MA, USA) for up to 4 weeks. The mouse body weight was measured every other day. Survival curve analysis was performed using GraphPad Prism 7.
Mouse liver tissues were harvested, fixed, paraffin embedded, and sectioned (8 μm). The tissues were permeabilized with 0.25% TritonX-100 at room temperature for 15 min, blocked with 1% FBS in PBS, and followed by incubation in primary antibodies at 4 °C overnight: rabbit anti-YAP (1:50 dilution, ab205270, abcam). The sections were then washed with PBS, incubated with anti-rabbit secondary antibody for 2 h and dyed with DAPI (10 μg/mL in PBS) for 5 min at room temperature. Slides were mounted using DPX Mountant (Electron Microscopy Sciences) and images were obtained by inverted fluorescence microscope (Olympus, Tokyo, Japan).

[4] = Body weight of mice in Pan02-Luc metastasis model; type: in vivo, C57BL/6 mice; settings: L001 75 mg/kg p.o. daily; gemcitabine 25 mg/kg i.p. twice a week; n = 6
Method: as §3

[5] = tested on: Pan02 cells; experiment: 3D Matrigel tumor spheroid invasion assay, Pan02; type: cell-based, murine; settings: 0.1 μM PGE2, day 7
Method: The 3D Matrigel invasion assay was performed as described. Pan02 and BxPC-3 cells were plated above a layer of Matrigel (ThermoFisher, Shanghai, China) and covered with growth medium containing 10% Matrigel. The culture medium containing different concentrations of compounds was changed every two days. After 7 days, cells with stellate invasive structure were photographed (OLYMPUS, Tokyo, Japan).

[6] = molecular target: T2, EP4 (Homo sapiens, UniProt P35408); experiment: cAMP responsive element (CRE) luciferase reporter assay; type: cell-based; design: host or cells: HEK293 (results) / CHO-K1 (methods)
T2 sequence (P35408 whole entry): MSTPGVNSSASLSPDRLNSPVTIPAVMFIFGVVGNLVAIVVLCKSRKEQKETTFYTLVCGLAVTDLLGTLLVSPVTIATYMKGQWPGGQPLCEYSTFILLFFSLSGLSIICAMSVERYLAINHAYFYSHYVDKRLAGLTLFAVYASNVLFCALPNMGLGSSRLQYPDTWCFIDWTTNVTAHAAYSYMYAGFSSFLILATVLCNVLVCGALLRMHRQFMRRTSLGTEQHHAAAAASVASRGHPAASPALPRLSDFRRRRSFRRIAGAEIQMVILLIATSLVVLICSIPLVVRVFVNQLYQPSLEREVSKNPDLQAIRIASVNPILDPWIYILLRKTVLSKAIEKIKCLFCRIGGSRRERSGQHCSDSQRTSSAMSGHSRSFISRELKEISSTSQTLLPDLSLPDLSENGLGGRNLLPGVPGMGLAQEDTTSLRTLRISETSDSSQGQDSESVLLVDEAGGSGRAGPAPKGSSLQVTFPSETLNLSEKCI
Method: CHO-K1 cells or pancreatic cancer cell lines were transfected with a cAMP responsive element (CRE) reporter or TEAD reporter using lipofectamine 2000 according to the manufacturer’s manual. Transfected cells were treated with varied concentrations of compounds for 24 h. Then, cells were lysed and luciferase activities were determined using Dual-Luciferase Reporter Assay Kit (Promega, Madison, WI, USA).

[7] = molecular target: T2, EP4; experiment: Calcium flux assay, human EP4; type: cell-based; design: expressed in transfected cells; host or cells: CHO-Gα16
Method: as §2

[8] = tested on: BxPC-3 cells; experiment: Wound healing assay, BxPC-3; type: cell-based, human; settings: 0.1 μM PGE2, 24 h, dose-dependent
Method: as §1

[9] = tested on: BxPC-3 cells; experiment: Cell viability assay (MTS), BxPC-3; type: cell-based, human; settings: 72 h
Method: Cells were seeded into 96-well plates and treated with varied concentrations of compounds for 72 hrs. Cell viabilities were determined by using MTS reagent (Promega, Madison, WI, USA) according to the manufacturer’s manual. Spectrophotometric absorbance at 490 nm was measured by Flexstation® 3 Multi-Mode Microplate Reader (Molecular Devices, San Jose, CA, USA). The experiments were independently repeated three times.

[10] = tested on: BxPC-3 cells; experiment: Transwell migration assay, BxPC-3; type: cell-based, human; settings: BxPC-3; with PGE2; 24 h
Method: The transwell assay was conducted as described previously, using 8 μm pore transwell inserts (Corning, NY, USA). Cells were suspended in serum-free DMEM and seeded into upper chambers at appropriate density. The bottom chamber was filled with DMEM supplemented with 10% fetal bovine serum and indicated concentrations of PGE2. The compounds were added in both upper and bottom chambers. […] Migrated cells were counted and quantified using image J.

In the case of `C[C@H](NC(=O)c1c(Cc2cccc(C(F)(F)F)c2)sc2c1CCOC2)c1ccc(C(=O)O)cc1` [L001], the PGE2-triggered wound closure [1] is reported as “significantly blocked”, the IC50 [2] is reported as over 10000 nM and the “YAP protein level in hepatic metastasis loci” value ([3]; IHC, L001 75 mg/kg p.o. daily) is reported as “decreased protein levels of YAP”. The “H&E imaging of liver sections” value ([3]; L001 or E7046 75 mg/kg p.o. daily, gemcitabine 25 mg/kg i.p. twice a week) was “remarkably reduced metastatic clusters”, the “reduction of Pan02 cell liver metastases (bioluminescence of separated livers)” value ([3]; L001 or E7046 75 mg/kg p.o. daily, gemcitabine 25 mg/kg i.p. twice a week, n = 6) was 85.14% and the “reduction in median luminescence signal compared with vehicle control group” value ([3]; day 28, L001 or E7046 75 mg/kg p.o. daily, gemcitabine 25 mg/kg i.p. twice a week, n = 6) was 80.57%. For the same compound, the median survival ([3]; n = 9, L001 or E7046 75 mg/kg p.o. daily, gemcitabine 25 mg/kg i.p. twice a week, control 34 days) was 42 days, the “mRNA expressions of Vimentin and Snail in hepatic metastasis loci” value ([3]; qPCR, L001 75 mg/kg p.o. daily) was “reduced the mRNA expressions” and the body weight loss [4] was “barely found”. The “spheroid invasion morphology (filopodium-like protrusions)” value [5] was “completely retracted PGE2-induced membrane surface projections”, the IC50 [6] was 7.29 ± 0.64 nM and the “antagonism efficacy on EP4 compared with E7046” value ([6]; CRE reporter assay) was “over 5 fold”. For the same compound, the IC50 [7] was 1.47 ± 0.02 nM, the “antagonism efficacy on EP4 compared with E7046” value ([7]; calcium flux assay) was “over 5 fold” and the PGE2-triggered wound closure [8] was “significantly blocked”. For the same compound, the cell viability [9] was “did not affect the cell viabilities” and the “migrated cells in the lower layer of the transwell” value [10] was “reduced migrated cells”.
